The results in this text go back to patent US20080182842A1, “L-alanine derivatives as a5beta1 antagonists” (ASTRAZENECA AB, priority 2007, published 2008).

α5β1 integrin, sequence (P08648 42-894 limits assumed): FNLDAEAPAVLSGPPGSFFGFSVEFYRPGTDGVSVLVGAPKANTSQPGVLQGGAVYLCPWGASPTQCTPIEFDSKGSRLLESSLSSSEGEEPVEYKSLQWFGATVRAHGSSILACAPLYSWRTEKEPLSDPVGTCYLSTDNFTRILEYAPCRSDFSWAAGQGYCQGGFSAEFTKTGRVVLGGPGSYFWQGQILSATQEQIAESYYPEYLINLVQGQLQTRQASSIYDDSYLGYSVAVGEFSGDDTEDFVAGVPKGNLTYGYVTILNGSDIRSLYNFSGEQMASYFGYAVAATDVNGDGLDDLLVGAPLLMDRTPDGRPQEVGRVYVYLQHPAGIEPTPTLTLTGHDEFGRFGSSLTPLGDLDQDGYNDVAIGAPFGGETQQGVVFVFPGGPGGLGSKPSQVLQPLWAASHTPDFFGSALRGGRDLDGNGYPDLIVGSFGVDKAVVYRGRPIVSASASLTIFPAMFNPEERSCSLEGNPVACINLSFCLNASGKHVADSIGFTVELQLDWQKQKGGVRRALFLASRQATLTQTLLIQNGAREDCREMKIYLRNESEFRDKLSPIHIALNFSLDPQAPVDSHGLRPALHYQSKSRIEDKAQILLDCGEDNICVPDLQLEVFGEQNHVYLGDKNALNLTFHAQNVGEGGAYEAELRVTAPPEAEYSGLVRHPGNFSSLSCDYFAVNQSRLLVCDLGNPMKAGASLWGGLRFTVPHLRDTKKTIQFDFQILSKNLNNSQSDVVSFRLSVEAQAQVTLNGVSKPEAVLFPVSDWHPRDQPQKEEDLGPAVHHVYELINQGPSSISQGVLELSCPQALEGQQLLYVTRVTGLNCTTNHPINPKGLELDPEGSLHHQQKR
α5β1 integrin, sequence (P08648 895-1049 partner limits assumed): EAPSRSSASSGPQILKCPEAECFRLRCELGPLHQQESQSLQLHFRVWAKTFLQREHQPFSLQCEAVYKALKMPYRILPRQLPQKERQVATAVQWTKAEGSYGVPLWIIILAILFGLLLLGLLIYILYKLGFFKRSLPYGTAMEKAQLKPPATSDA
α5β1 integrin, sequence (P05556 21-798): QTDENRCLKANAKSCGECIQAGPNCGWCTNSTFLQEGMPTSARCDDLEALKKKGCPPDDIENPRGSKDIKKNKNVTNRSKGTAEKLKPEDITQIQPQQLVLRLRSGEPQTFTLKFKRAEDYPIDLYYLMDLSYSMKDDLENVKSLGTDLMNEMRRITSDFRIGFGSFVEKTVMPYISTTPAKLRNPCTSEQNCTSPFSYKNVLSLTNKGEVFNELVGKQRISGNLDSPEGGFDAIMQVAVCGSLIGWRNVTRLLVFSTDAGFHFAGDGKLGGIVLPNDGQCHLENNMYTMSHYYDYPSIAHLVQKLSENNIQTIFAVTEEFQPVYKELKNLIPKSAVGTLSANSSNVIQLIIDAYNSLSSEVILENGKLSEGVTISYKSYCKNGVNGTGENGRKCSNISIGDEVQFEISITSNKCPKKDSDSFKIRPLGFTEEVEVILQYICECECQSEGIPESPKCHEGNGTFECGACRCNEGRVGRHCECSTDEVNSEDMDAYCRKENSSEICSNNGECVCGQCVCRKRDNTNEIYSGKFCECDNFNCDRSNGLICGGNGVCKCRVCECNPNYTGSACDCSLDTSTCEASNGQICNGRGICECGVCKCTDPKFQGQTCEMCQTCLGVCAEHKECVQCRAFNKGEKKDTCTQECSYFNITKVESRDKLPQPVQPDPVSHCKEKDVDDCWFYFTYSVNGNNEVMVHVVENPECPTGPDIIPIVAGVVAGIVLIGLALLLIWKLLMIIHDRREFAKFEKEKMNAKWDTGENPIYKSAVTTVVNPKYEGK

This test has as its target α5β1 integrin (Homo sapiens, UniProt P05556+P08648). Put plainly: In vitro binding assay (a): inhibition of binding of α5β1 integrin to fibronectin fragment Fn9-10 (Origen electrochemiluminescence). As to conditions: recombinant human α5β1 vs Fn9-10 ligand; geometric mean where tested more than once. The source says:
(a) In Vitro Binding Assay
The assay determined the ability of compounds to inhibit binding of α5β1 integrin to a cognate ligand, a fragment of human fibronectin. The assay used Origen technology (IGEN International) to measure the compound activity. Briefly, α5β1 integrin was coated onto epoxy-paramagnetic beads (Dynal Biotech UK, Bromborough, Wirral, CH62 3QL, UK, Catalogue No 140.11) and biotinylated-fibronectin ligand was coupled to strepatividin labeled Tag-NHS-Ester (BioVeris Corporation, Witney, Oxfordshire, OX28 4GE, UK, Catalogue No 110034). The ruthenium-labeled tag emits an electrochemiluminescence signal upon stimulation which is detected by the Origen reader. Thus, interaction of integrin and ligand causes association of bead and tag, and the resulting electrochemiluminescence signal reflects the level of integrin interaction with fibronectin.
20 μg of recombinant human α5β1 was coated onto 4×10(7) epoxy-paramagnetic beads according to manufacturers instructions at 4° C. for 24 hours. Integrin coating and corresponding activity was subsequently measured for each batch but typically, 25 ng of coated protein was used per assay well.
A DNA fragment encoding the domains 9-10 (amino-acids 1325-1509) of human fibronectin (Swiss-Prot Accession No. P02751) was isolated from cDNA libraries using standard molecular biology and PCR cloning techniques. The cDNA fragment was sub-cloned into a pT73.3 expression vector containing a GST-epitope tag (developed at AstraZeneca; Bagnall et al., Protein Expression and Purification, 2003, 27: 1-11). Following expression in E. coli, the expressed protein, termed Fn9-10, was purified using the GST-tag using standard purification techniques. The recombinant Fn9-10 was subsequently biotinylated using a EZ-link Sulfo-NHS-LC-Biotinylation kit (Perbio Science UK Ltd., Cramlington, Northumberland, NE23 1WA, UK, Catalogue No. 21335) and made to give a final concentration of approximately 1 mg/ml. Tag-NHS-Ester was labeled with streptavidin by incubation at room temperature following manufacturers instructions and buffer-exchanged into PBS to give a concentration of 0.5 mg/ ml. Immediately prior to the assay, biotinylated-Fn9-10 and Streptavidin-labeled Tag were diluted in Assay Buffer to give a final concentrations of 0.6 ug/ml and 1.5 ug/ml respectively. The Fn9-10 and Tag solutions were then mixed together in equal volumes and incubated on ice for at least 30 minutes prior to the assay.
Test compounds were prepared as 10 mM stock solutions in DMSO (Sigma-Aldrich Company Ltd, Gillingham, Dorset SP8 4XT Catalogue No. 154938) and serially diluted with 4% DMSO to give a range of test concentrations at ×4 required final concentration. Aliquots (20 μl) of each compound dilution were placed into each well of a 384-well round bottomed polypropylene plate (Matrix Technologies, Wilmslow, Cheshire, SK9 3LP, Catalogue No. 4340 384). Each plate also contained control wells: maximum signal was created using wells containing 20 μl of 4% DMSO, and minimum signal corresponding to no binding was created using wells containing 20 μl of 80 mM EDTA (Sigma Catalogue No. E7889).
For the assay, 25 ng(20 ul) of a5b1-bead suspension and 40 μl of the Fn9-10/Tag pre-incubated solution were added to each well containing 20 μl of compound or control solution. Assay plates were then incubated at room temperature for a minimum of 6 hours before being analysed on an Origen plate reader. The minimum value was subtracted from all values, and the signal was plotted against compound concentration to generate IC50 data.
The data in the above table was generated in an assay substantially as described above in relation to Binding Assay (a). Some of the compounds shown in the table were tested more than once in the assay. For those compounds the IC50 value shown is the geometric mean of the measured IC50 values. […]
As for `CNc1cccc(CCOc2ccc(C[C@H](NC(=O)C3(C)CCCCC3)C(=O)O)cc2)n1` [Example 1.1, O-{2-[6-(methylamino)pyridin-2-yl]ethyl}-N-[(1-methylcyclohexyl)carbonyl]-L-tyrosine], the IC50 is 5 nM.

`CNc1cccc(CCOc2ccc(C[C@H](NC(=O)C3CCCCC3C)C(=O)O)cc2)n1` (stereo partly drawn) [Example 1.2, O-{2-[6-(methylamino)pyridin-2-yl]ethyl}-N-[(2-methylcyclohexyl)carbonyl]-L-tyrosine]: the IC50 was found to be 7 nM.

As to `CNc1cccc(CCOc2ccc(C[C@H](NC(=O)[C@H](C)OC)C(=O)O)cc2)n1` [Example 1.3, N-[(2S)-2-methoxypropanoyl]-O-{2-[6-(methylamino)pyridin-2-yl]ethyl}-L-tyrosine], the concentration for half-maximal inhibition (IC50) worked out at 22 nM.

Take `CNc1cccc(CCOc2ccc(C[C@H](NC(=O)[C@H](CC(C)C)NC(=O)c3ccccc3)C(=O)O)cc2)n1` [Example 1.4, N-benzoylleucyl-O-{2-[6-(methylamino)pyridin-2-yl]ethyl}-L-tyrosine]: the IC50 came out at 66 nM.

On to `CNc1cccc(CCOc2ccc(C[C@H](NC(=O)C(C)(C)C(=O)N3CCCC3)C(=O)O)cc2)n1` [Example 1.5, N-(2,2-dimethyl-3-oxo-3-pyrrolidin-1-ylpropanoyl)-O-{2-[6-(methylamino)pyridin-2-yl]ethyl}-L-tyrosine], for which the IC50 was 2 nM.

Regarding `CNc1cccc(CCOc2ccc(C[C@H](NC(=O)C3(O)CC3)C(=O)O)cc2)n1` [Example 1.6, N-[(1-hydroxycyclopropyl)carbonyl]-O-{2-[6-(methylamino)pyridin-2-yl]ethyl}-L-tyrosine], the IC50 was 958 nM.

Turning to `CNc1cccc(CCOc2ccc(C[C@H](NC(=O)C3(OC)CCOCC3)C(=O)O)cc2)n1` [Example 1.7, N-[(4-methoxytetrahydro-2H-pyran-4-yl)carbonyl]-O-{2-[6-(methylamino)pyridin-2-yl]ethyl}-L-tyrosine], the half-maximal inhibitory concentration (IC50) was determined as 4 nM.

On to `CC#CC(=O)N[C@@H](Cc1ccc(OCCc2cccc(NC)n2)cc1)C(=O)O` [Example 1.8, N-but-2-ynoyl-O-{2-[6-(methylamino)pyridin-2-yl]ethyl}-L-tyrosine], for which the IC50 worked out at 363 nM.

Turning to `CCC(=O)N[C@@H](Cc1ccc(OCCc2cccc(NC)n2)cc1)C(=O)O` [Example 1.9, O-{2-[6-(methylamino)pyridin-2-yl]ethyl}-N-propionyl-L-tyrosine], the IC50 was 116 nM.

Consider `CCCCCC(=O)N[C@@H](Cc1ccc(OCCc2cccc(NC)n2)cc1)C(=O)O` [Example 1.10, N-hexanoyl-O-{2-[6-(methylamino)pyridin-2-yl]ethyl}-L-tyrosine], for which the IC50 turned out to be 179 nM.

Take `CNc1cccc(CCOc2ccc(C[C@H](NC(=O)C(C)C)C(=O)O)cc2)n1` [Example 1.11, N-isobutyryl-O-{2-[6-(methylamino)pyridin-2-yl]ethyl}-L-tyrosine]: the IC50 turned out to be 73 nM.

For the compound `CCCCC(CC)C(=O)N[C@@H](Cc1ccc(OCCc2cccc(NC)n2)cc1)C(=O)O` (stereo partly drawn) [Example 1.12, N-(2-ethylhexanoyl)-O-{2-[6-(methylamino)pyridin-2-yl]ethyl}-L-tyrosine], the concentration for half-maximal inhibition (IC50) was determined as 8 nM.

As to `CNc1cccc(CCOc2ccc(C[C@H](NC(=O)C(C)(C)C)C(=O)O)cc2)n1` [Example 1.13, N-(2,2-dimethylpropanoyl)-O-{2-[6-(methylamino)pyridin-2-yl]ethyl}-L-tyrosine], the IC50 amounted to 34 nM.

Consider `CNc1cccc(CCOc2ccc(C[C@H](NC(=O)C3CCCCCC3)C(=O)O)cc2)n1` [Example 1.14, N-(cycloheptylcarbonyl)-O-{2-[6-(methylamino)pyridin-2-yl]ethyl}-L-tyrosine], for which the IC50 stood at 7 nM.

In the case of `CNc1cccc(CCOc2ccc(C[C@H](NC(=O)C3CCCCC3)C(=O)O)cc2)n1` [Example 1.15, N-(cyclohexylcarbonyl)-O-{2-[6-(methylamino)pyridin-2-yl]ethyl}-L-tyrosine], the 50% inhibitory concentration (IC50) was found to be 32 nM.

For `CNc1cccc(CCOc2ccc(C[C@H](NC(=O)C3CCCC3)C(=O)O)cc2)n1` [Example 1.16, N-(cyclopentylcarbonyl)-O-{2-[6-(methylamino)pyridin-2-yl]ethyl}-L-tyrosine], the IC50 is 9 nM.

`CNc1cccc(CCOc2ccc(C[C@H](NC(=O)C3CCC3)C(=O)O)cc2)n1` [Example 1.17, N-(cyclobutylcarbonyl)-O-{2-[6-(methylamino)pyridin-2-yl]ethyl}-L-tyrosine]: the IC50 turned out to be 49 nM.

With `CNc1cccc(CCOc2ccc(C[C@H](NC(=O)C3CC3)C(=O)O)cc2)n1` [Example 1.18, N-(cyclopropylcarbonyl)-O-{2-[6-(methylamino)pyridin-2-yl]ethyl}-L-tyrosine], the IC50 amounted to 608 nM.

With `CNc1cccc(CCOc2ccc(C[C@H](NC(=O)[C@@H](C)OC)C(=O)O)cc2)n1` [Example 1.19, N-[(2R)-2-methoxypropanoyl]-O-{2-[6-(methylamino)pyridin-2-yl]ethyl}-L-tyrosine], the IC50 was 29 nM.

With `CNc1cccc(CCOc2ccc(C[C@H](NC(=O)C3(CO)CCOCC3)C(=O)O)cc2)n1` [Example 1.20, N-{[4-(hydroxymethyl)tetrahydro-2H-pyran-4-yl]carbonyl}-O-{2-[6-(methylamino)pyridin-2-yl]ethyl}-L-tyrosine], the half-maximal inhibitory concentration (IC50) was found to be 32 nM.

As for `CNc1cccc(CCOc2ccc(C[C@H](NC(=O)CCc3ccccc3)C(=O)O)cc2)n1` [Example 1.21, O-{2-[6-(methylamino)pyridin-2-yl]ethyl}-N-(3-phenylpropanoyl)-L-tyrosine], the IC50 was found to be 45 nM.

With `CNc1cccc(CCOc2ccc(C[C@H](NC(=O)Cc3ccccc3)C(=O)O)cc2)n1` [Example 1.22, O-{2-[6-(methylamino)pyridin-2-yl]ethyl}-N-(phenylacetyl)-L-tyrosine], the IC50 was determined as 215 nM.

Consider `CNc1cccc(CCOc2ccc(C[C@H](NC(=O)C(O)c3ccccc3)C(=O)O)cc2)n1` (stereo partly drawn) [Example 1.23, N-[hydroxy(phenyl)acetyl]-O-{2-[6-(methylamino)pyridin-2-yl]ethyl}-L-tyrosine], for which the IC50 was 837 nM.

`CNc1cccc(CCOc2ccc(C[C@H](NC(=O)C(c3ccccc3)c3ccccc3)C(=O)O)cc2)n1` [Example 1.24, N-(diphenylacetyl)-O-{2-[6-(methylamino)pyridin-2-yl]ethyl}-L-tyrosine]: the IC50 stood at 45 nM.

Consider `CNc1cccc(CCOc2ccc(C[C@H](NC(=O)Cc3ccccn3)C(=O)O)cc2)n1` [Example 1.25, O-{2-[6-(methylamino)pyridin-2-yl]ethyl}-N-(pyridin-2-ylacetyl)-L-tyrosine], for which the IC50 worked out at 235 nM.

Take `CNc1cccc(CCOc2ccc(C[C@H](NC(=O)Cc3cccnc3)C(=O)O)cc2)n1` [Example 1.26, O-{2-[6-(methylamino)pyridin-2-yl]ethyl}-N-(pyridin-3-ylacetyl)-L-tyrosine]: the IC50 stood at 525 nM.

`CNc1cccc(CCOc2ccc(C[C@H](NC(=O)Cc3ccncc3)C(=O)O)cc2)n1` [Example 1.27, O-{2-[6-(methylamino)pyridin-2-yl]ethyl}-N-(pyridin-4-ylacetyl)-L-tyrosine]: the IC50 was 287 nM.

For `CC1(C(=O)N[C@@H](Cc2ccc(OCCc3ccc4c(n3)NCCC4)cc2)C(=O)O)CCCCC1` [Example 2.1, N-[(1-methylcyclohexyl)carbonyl]-O-[2-(5,6,7,8-tetrahydro-1,8-naphthyridin-2-yl)ethyl]-L-tyrosine], the half-inhibitory concentration (IC50) is 1 nM.

Take `CC1CCCCC1C(=O)N[C@@H](Cc1ccc(OCCc2ccc3c(n2)NCCC3)cc1)C(=O)O` (stereo partly drawn) [Example 2.2, N-[(2-methylcyclohexyl)carbonyl]-O-[2-(5,6,7,8-tetrahydro-1,8-naphthyridin-2-yl)ethyl]-L-tyrosine]: the IC50 was < 1 nM.

In general, IC50 refers to the point on the concentration scale where inhibition reaches its midpoint.
